Laboratory results from patent publication US20240085429A1, “ALTERING PROTEIN FUNCTION BY PHARMACOLOGICAL TARGETING OF MEMBRANE DOMAINS” (University of Virginia Patent Foundation, priority 2021, published 2024).

System: GPMVs isolated from HeLa cells
Assay: High-throughput screen of the Cayman bioactive lipid library for effects on GPMV phase behavior (% phase separated vesicles, NBD-DSPE phase preference)
Set-up: species or system human
Conditions: HeLa GPMVs, RT; for Effect on Pang(ϕ): NBD-DSPE raft phase preference; for Effect on Pang(ϕ) / % phase separated z-score / Pordered z-score: final 1 μM; for % phase separated z-score / Pordered z-score: Table 4; for Pordered z-score: NBD-DSPE; for Effect on % phase separated vesicles: final drug concentration 1 μM, NBD-DSPE channel
Procedure: This approach is not practical for high throughput screening applications, which typically are performed at a single temperature. Changes in the percentage of phase-separated GPMVs were monitored at a single temperature in response to the addition of small molecules as a surrogate for measuring Tmisc directly (FIG. 1A). This approach requires that a significant fraction of GPMVs are phase separated under control conditions, such that experimentally-induced changes can be readily detected.
In phase separated vesicles these markers are enriched in their preferred domains, such that a given vesicle contains a co-existing NBD-DSPE-rich phase and a DiD-rich phase. In contrast, NBD-DSPE and DiD colocalize in a single uniform phase in GPMVs that are not phase separated. We also optimized conditions to isolate and plate GPMVs in multi-well plates.
To provide proof-of-concept, the Cayman lipid library containing ˜850 bioactive lipid-like compounds in the Vanderbilt High-throughput Screening Facility was screened, using […] of each compound across three independent screens. All screens were carried out using an automated microscope/high-content imaging system and robotic plate handler at RT. […] Compounds were initially scored based on their capacity to alter the percentage of phase separated vesicles (FIG. 2A).
HeLa cells were obtained from ATCC (cat #CCL-2) and cultured at 37° C. in 5% CO2 in a humidified tissue culture incubator. […] In brief, cells were plated in 150 mm tissue culture dishes the day before the experiment, to yield a confluence of 70-80% the day of the experiment. To generate GPMVs, cells were rinsed twice in 10 ml of GPMV buffer (2 mM DTT, 25 mM formaldehyde, 150 mM NaCl, 10 mM HEPES, 2 mM CaCl2), pH=7.4) and subsequently incubated in 12 ml of GPMV buffer at 37° C. with gentle shaking at 70 rpm for 1.5 h. The raft marker NBD-DSPE (1,2-distearoyl-sn-glycero-3-phosphoethanolamine-N-(7-nitro-2-1,3-benzoxadiazol-4-yl; Avanti Polar Lipids) and the non-raft marker DiD (1,1′-dioctadecyl-3,3,3′,3′-tetramethylindodicarbocyanine perchlorate; cat #D307 Thermo Scientific) were added from stock solutions in ethanol to the GPMV suspension at final concentrations of 5-6 μg/ml and 1 μg/ml, respectively, for the initial screenings. For some experiments, cells were prelabelled with 5 μg/ml DiD for 8 min at 4° C. and washed several times prior to GPMVs generation. Screening was performed the same day that GPMVs were generated.
[…] GPMVs suspension in GPMV buffer was then added to each well of a 96-well plate to obtain a final drug concentration of 1 μM. The GPMVs were allowed to settle to the bottom of the plates for 1.5 h prior to imaging. Samples were prepared and imaged at RT. The screen was repeated on three different days using three separately prepared batches of GPMVs (3 biological replicates).
Image acquisition was performed with an ImageXpress Micro XL automated microscope (Molecular Devices) using a Nikon 40X 0.6 NA Super Plan Fluor ELWD objective and a Lumencor Sola solid-state light source. Laser autofocus was employed at each site to obtain the best focus z-plane for each channel. […] Sixteen sites were captured per well using a 4.2 MP widefield scientific cMOS camera with a camera binning of 1. Each plate took approximately 1.3 h to image. Multiple plates were loaded to a plate carousel (ThermoScientific), shuttled to/from the ImageXpress via a ThermoScientific CRS F3 robot arm, and automatically run through the Momentum scheduling software (Thermo). To analyze the data, images and metadata were exported as TIFF files and subjected to image analysis using a custom MATLAB-based program as described below.

Compound: CC(C)c1ccc2c(c1)c(SC(C)(C)C)c(CC(C)(C)C(=O)O)n2Cc1ccc(Cl)cc1 [MK-886, 1-[(4-chlorophenyl)methyl]-3-[(1,1-dimethylethyl)thio]-α,α-dimethyl-5-(1-methylethyl)-1H-indole-2-propanoic acid]
- Effect on Pang(ϕ): ↑
- % phase separated z-score: 0.67
- Pordered z-score: 2.10

Compound: CCCCCCCCCCCCC/C=C/[C@@H](O)[C@H](CO)NC(=O)CCCCCCC [C8 Ceramide (d18:1/8:0)]
- Effect on % phase separated vesicles: ↓
- % phase separated z-score: −2.87
- Pordered z-score: −0.72

Compound: Cl.c1cc(N2CCNCC2)c2cnccc2c1 [8-piperazin-1-yl-Isoquinoline (hydrochloride)]
- Effect on % phase separated vesicles: ↑
- % phase separated z-score: 2.14
- Pordered z-score: 1.61

Compound: CCCCCCCCCCCCC/C=C/[C@@H](O)[C@H](CO)N(C)C [N,N-Dimethylsphingosine (d18:1)]
- Effect on % phase separated vesicles: ↓
- % phase separated z-score: −2.09
- Pordered z-score: −0.70

Compound: CCCCCCCCCCCCCCCCOC[C@H](COP(=O)([O-])OCC[N+](C)(C)C)OC(C)=O [PAF C-16, 1-O-hexadecyl-2-O-acetyl-sn-glyceryl-3-phosphorylcholine]
- Effect on % phase separated vesicles: ↓
- % phase separated z-score: −2.00
- Pordered z-score: 1.87

Compound: CCCCCCCCCCCCCCOc1ccc(C(=O)O)o1 [TOFA, 5-(Tetradecyloxy)-2-furancarboxylic acid]
- Effect on % phase separated vesicles: ↓
- % phase separated z-score: −3.41
- Pordered z-score: −1.20

Compound: CCCCCCCCCCCC1NC(C(=O)O)CS1 (stereo not shown) [CAY10444, 2-undecyl-thiazolidine-4-carboxylic acid]
- Effect on Pang(ϕ): ↓
- % phase separated z-score: −1.61
- Pordered z-score: −2.04

Compound: CCCCCCCC/C=C\CCCCCCCC(=O)OC[C@@H](COP(O)(O)=S)OC.CCN(CC)CC.CCN(CC)CC [(2S)-OMPT, 9Z-octadecenoic acid, (2S)-3-[(hydroxymercaptophosphinyl)oxy]-2-methoxypropyl ester, triethyl ammonium salt (1:2)]
- Effect on % phase separated vesicles: ↓
- % phase separated z-score: −2.12
- Pordered z-score: −0.27

Compound: CCCCCCCCCCCCCCCCOCC(COP(=O)([O-])OCC[N+](C)(C)C)SC(C)=O (stereo not shown) [2-thio-PAF, 1-O-hexadecyl-2-deoxy-2-thio-S-acetyl-sn-glyceryl-3-phosphorylcholine]
- Effect on % phase separated vesicles: ↓
- % phase separated z-score: −3.15
- Pordered z-score: −0.72

Compound: CCCCCCCCCCCCCCCC(=O)NCCS(=O)(=O)O [N-Palmitoyl Taurine]
- Effect on % phase separated vesicles: ↑
- % phase separated z-score: 2.19
- Pordered z-score: 1.66

Compound: C=C(C)[C@@H]1CCC(C)=C[C@H]1c1c(C)cc(O)cc1O [O-1602, 5-methyl-4-[(1R,6R)-3-methyl-6-(1-methylethenyl)-2-cyclohexen-1-yl] -1,3-benzenediol]
- Effect on % phase separated vesicles: ↓
- % phase separated z-score: −2.10
- Pordered z-score: −0.27

Compound: CN(C)S(=O)(=O)c1ccc2c(c1)C(=Cc1cc3c([nH]1)CCCC3)C(=O)N2 [SU6656, 2,3-dihydro-N,N-dimethyl-2-oxo-3-[(4,5,6,7-tetrahydro-1H-indol-2-yl)methylene]-1H-indole-5-sulfonamide]
- Effect on % phase separated vesicles: ↓
- % phase separated z-score: −2.06
- Pordered z-score: −0.42

Compound: CCCCCCCCCCCCCCCCSP(=O)([O-])OCC[N+](C)(C)C [thio-Miltefosine]
- Effect on % phase separated vesicles: ↑
- Effect on Pang(ϕ): ↑
- % phase separated z-score: 2.12
- Pordered z-score: 2.78

Compound: COc1ccc(/C=C\c2cc(OC)cc(OC)c2)cc1 [cis-trismethoxy Resveratrol]
- Effect on % phase separated vesicles: ↓
- % phase separated z-score: −2.45
- Pordered z-score: −1.61

Compound: (−)-Epigallocatechin Gallate
- Effect on % phase separated vesicles: ↑
- % phase separated z-score: 4.33
- Pordered z-score: 1.42

Compound: CCCCC/C=C\C/C=C\C/C=C\C/C=C\CCCC(=O)NCCF [Arachidonoyl-2′-Fluoroethylamide]
- Effect on Pang(ϕ): ↑
- % phase separated z-score: 1.90
- Pordered z-score: 2.38

Compound: CCCCCCCC/C=C\CCCCCCCC(=O)N[C@H](CO)c1ccc(O)cc1 [OMDM-1, (S)-N-(1-(4-hydroxyphenyl)-2-hydroxyethyl) oleamide]
- Effect on % phase separated vesicles: ↓
- % phase separated z-score: −2.62
- Pordered z-score: −0.54

Compound: CCCCCCCCCCCCCCCCOC[C@H](COP(=O)([O-])OCC[N+](C)(C)C)OC(=O)NC [Methylcarbamyl PAF C-16]
- Effect on Pang(ϕ): ↑
- % phase separated z-score: −0.58
- Pordered z-score: 2.20

Compound: CCCCCCCCCCCCCCCCCC(=O)NCCS(=O)(=O)O [N-Stearoyl Taurine]
- Effect on % phase separated vesicles: ↑
- Effect on Pang(ϕ): ↑
- % phase separated z-score: 3.21
- Pordered z-score: 2.89

Compound: COc1ccc(-c2nc(C(=O)N3CCN(C)CC3)sc2-c2ccc(OC)cc2)cc1.Cl [FR122047 (hydrochloride), 1-[[4,5-bis(4-methoxyphenyl)-2-thiazolyl]carbonyl]-4-methyl-piperazine, monohydrochloride]
- Effect on Pang(ϕ): ↓
- % phase separated z-score: 0.12
- Pordered z-score: −2.03

Compound: CCCCC/C=C\C/C=C\CCCCCCCCCC(=O)O [11(Z),14(Z)-Eicosadienoic Acid]
- Effect on % phase separated vesicles: ↓
- % phase separated z-score: −2.15
- Pordered z-score: −0.46

Compound: O=c1[nH]c(-c2ccc(C(F)(F)F)cc2)nc2c1CSCC2 [XAV939, 3,5,7,8-tetrahydro-2-[4-(trifluoromethyl)phenyl]-4H-thiopyrano[4,3-d]pyrimidin-4-one]
- Effect on % phase separated vesicles: ↑
- % phase separated z-score: 2.33
- Pordered z-score: 0.58

Compound: CCCCCCCCCCCCCCCCOC[C@H](COP(=O)([O-])OCC[N+](C)(C)C)OC [2-O-methyl PAF C-16, 1-O-hexadecyl-2-O-methyl-sn-glyceryl-3-phosphorylcholine]
- Effect on Pang(ϕ): ↑
- % phase separated z-score: −1.06
- Pordered z-score: 2.68

Compound: Br.CCSC(=N)N [S-ethyl Isothiourea (hydrobromide)]
- Effect on Pang(ϕ): ↑
- % phase separated z-score: 0.85
- Pordered z-score: 2.57

Compound: CC1(COc2ccc(CC3SC(=O)NC3=O)cc2)CCCCC1 (stereo not shown) [Ciglitazone]
- % phase separated z-score: −2.73
- Pordered z-score: −1.71
